Laboratory results: article PMC4488483, “Reversible Oxidation of a Conserved Methionine in the Nuclear Export Sequence Determines Subcellular Distribution and Activity of the Fungal Nitrate Regulator NirA” (PLoS Genetics, 2015)

Assays:
[1] = target: T1, FmoB (Aspergillus nidulans, UniProt Q5B5S0); experiment: UV-visible absorbance spectrum of FAD saturated enzyme; format: binding; details: purified recombinant FmoB
T1 construct: gene ANIA_04110; complete fmoB gene from cDNA, expressed in E. coli, HIS-Select and size exclusion purified, ~60 kDa on SDS-PAGE, FAD saturated
T1 sequence (Q5B5S0 1-492): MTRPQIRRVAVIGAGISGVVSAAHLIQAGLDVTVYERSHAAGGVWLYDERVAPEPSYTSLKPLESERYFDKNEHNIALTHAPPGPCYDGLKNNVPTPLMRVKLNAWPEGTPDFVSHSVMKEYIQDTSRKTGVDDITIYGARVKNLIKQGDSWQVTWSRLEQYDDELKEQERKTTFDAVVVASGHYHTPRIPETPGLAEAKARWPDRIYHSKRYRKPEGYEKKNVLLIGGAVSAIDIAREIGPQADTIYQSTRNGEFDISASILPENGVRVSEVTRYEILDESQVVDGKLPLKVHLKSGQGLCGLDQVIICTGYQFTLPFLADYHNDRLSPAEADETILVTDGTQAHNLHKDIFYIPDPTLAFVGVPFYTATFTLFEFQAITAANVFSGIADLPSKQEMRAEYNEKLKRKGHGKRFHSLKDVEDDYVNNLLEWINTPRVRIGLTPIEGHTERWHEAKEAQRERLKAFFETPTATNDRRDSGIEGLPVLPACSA

[2] = target: T1, FmoB; experiment: HPLC of L-methionine sulfoxide formed; format: biochemical; details: NADPH-dependent; up to 5 mM methionine; low rate
[3] = target: T1, FmoB; experiment: NADPH consumption, absorbance at […] nm; format: biochemical; details: 2 uM FmoB, 200 uM NADPH, 2 mM substrate

SMILES: Cc1cc2nc3c(=O)[nH]c(=O)nc-3n(C[C@H](O)[C@H](O)[C@H](O)COP(=O)(O)OP(=O)(O)OC[C@H]3O[C@@H](n4cnc5c(N)ncnc54)[C@H](O)[C@@H]3O)c2cc1C [FAD]
- UV-visible absorbance spectrum of FAD saturated enzyme [1]: An UV-visible absorbance spectra of FAD saturated FmoB is shown as inset

SMILES: CSCC[C@H](N)C(=O)O [L-methionine]
- HPLC of L-methionine sulfoxide formed [2]: it is able to convert free methionine to the sulfoxide form

SMILES: N[C@@H](CS)C(=O)O [cysteine]
- NADPH consumption, absorbance at 340 nm [3]: free cysteine, dithiothreitol (DTT) or β-mercaptoethanol were favourable substrates for FmoB
